Results taken from ChEMBL document CHEMBL5528028, “Discovery of benzopyridone cyanoacetates as new type of potential broad-spectrum antibacterial candidates” (Eur J Med Chem, 2024).
≈ marks a conversion by molar mass, not a printed value.

Experiments:
Format in all cases: functional
[1] = system: Staphylococcus aureus; test: Antibacterial activity against Staphylococcus aureus ATCC 29213 assessed growth inhibition by micro broth dilution method
[2] = system: Klebsiella pneumoniae; test: Antibacterial activity against Klebsiella pneumonia assessed growth inhibition by micro broth dilution method
[3] = system: Escherichia coli; test: Antibacterial activity against Escherichia coli assessed growth inhibition by micro broth dilution method
[4] = system: Staphylococcus aureus; test: Antibacterial activity against Staphylococcus aureus ATCC 25923 assessed growth inhibition by micro broth dilution method
[5] = system: Staphylococcus aureus; test: Antibacterial activity against Staphylococcus aureus assessed growth inhibition by micro broth dilution method
[6] = system: Escherichia coli; test: Antibacterial activity against Escherichia coli ATCC 25922 assessed growth inhibition by micro broth dilution method
[7] = system: Enterococcus faecalis; test: Antibacterial activity against Enterococcus faecalis assessed growth inhibition by micro broth dilution method
[8] = system: Acinetobacter baumannii; test: Antibacterial activity against Acinetobacter baumannii assessed growth inhibition by micro broth dilution method
[9] = system: Pseudomonas aeruginosa; test: Antibacterial activity against Pseudomonas aeruginosa assessed growth inhibition by micro broth dilution method
[10] = system: Staphylococcus aureus; test: Antibacterial activity against methicillin-resistant Staphylococcus aureus assessed growth inhibition by micro broth dilution method
[11] = system: Pseudomonas aeruginosa; test: Antibacterial activity against Pseudomonas aeruginosa ATCC 27853 assessed growth inhibition by micro broth dilution method

Row | SMILES | MIC [1] | MIC [2] | MIC [3] | MIC [4] | MIC [5] | MIC [6] | MIC [7] | MIC [8] | MIC [9] | MIC [10] | MIC [11]
1 | CCOC(=O)c1cn(Cc2cccc(Cl)c2)c2cc(F)c(F)cc2c1=O | 128 µg/mL (≈ 339 µM) | 32 µg/mL (≈ 84.7 µM) | 1 µg/mL (≈ 2.65 µM) | 64 µg/mL (≈ 169 µM) | 64 µg/mL (≈ 169 µM) | 64 µg/mL (≈ 169 µM) | 2 µg/mL (≈ 5.29 µM) | 4 µg/mL (≈ 10.6 µM) | 256 µg/mL (≈ 678 µM) | 256 µg/mL (≈ 678 µM) | 32 µg/mL (≈ 84.7 µM)
2 | CCOC(=O)C(C#N)c1cc2c(cc1F)c(=O)c(C(=O)O)cn2CC (configuration not stated) | 16 µg/mL (≈ 46.2 µM) | 1 µg/mL (≈ 2.89 µM) | 32 µg/mL (≈ 92.4 µM) | 4 µg/mL (≈ 11.6 µM) | 4 µg/mL (≈ 11.6 µM) | 0.5 µg/mL (≈ 1.44 µM) | 64 µg/mL (≈ 185 µM) | 8 µg/mL (≈ 23.1 µM) | 8 µg/mL (≈ 23.1 µM) | 4 µg/mL (≈ 11.6 µM) | 4 µg/mL (≈ 11.6 µM)
3 | CCOC(=O)c1cn2c3c(c([C-](C#N)C(=O)OCC)c(F)cc3c1=O)OC[C@@H]2C.[Na+] (some centres not stated) | 256 µg/mL | 256 µg/mL | 64 µg/mL | 4 µg/mL | 256 µg/mL | 64 µg/mL | 128 µg/mL | 128 µg/mL | 256 µg/mL | 128 µg/mL | 64 µg/mL
4 | CCOC(=O)c1cn(CC2CCCC2)c2cc([C-](C#N)C(=O)OCC)c(F)cc2c1=O.[Na+] (configuration not stated) | 4 µg/mL | 8 µg/mL | 128 µg/mL | 8 µg/mL | 16 µg/mL | 2 µg/mL | 2 µg/mL | 4 µg/mL | 8 µg/mL | 16 µg/mL | 8 µg/mL
5 | CCOC(=O)c1cn(CC(=O)N2CCCCC2)c2cc(F)c(F)cc2c1=O | 64 µg/mL (≈ 169 µM) | 256 µg/mL (≈ 677 µM) | 16 µg/mL (≈ 42.3 µM) | 128 µg/mL (≈ 338 µM) | 256 µg/mL (≈ 677 µM) | 64 µg/mL (≈ 169 µM) | 64 µg/mL (≈ 169 µM) | 64 µg/mL (≈ 169 µM) | 32 µg/mL (≈ 84.6 µM) | 256 µg/mL (≈ 677 µM) | 64 µg/mL (≈ 169 µM)
6 | CCCCCCn1cc(C(=O)OCC)c(=O)c2cc(F)c(F)cc21 | 128 µg/mL (≈ 379 µM) | 64 µg/mL (≈ 190 µM) | 8 µg/mL (≈ 23.7 µM) | 128 µg/mL (≈ 379 µM) | 8 µg/mL (≈ 23.7 µM) | 64 µg/mL (≈ 190 µM) | 64 µg/mL (≈ 190 µM) | 64 µg/mL (≈ 190 µM) | 64 µg/mL (≈ 190 µM) | 256 µg/mL (≈ 759 µM) | 256 µg/mL (≈ 759 µM)
7 | CCOC(=O)c1cn(CC(=O)N2CCCCC2)c2cc([C-](C#N)C(=O)OCC)c(F)cc2c1=O.[Na+] (configuration not stated) | 8 µg/mL | 256 µg/mL | 32 µg/mL | 64 µg/mL | 256 µg/mL | 64 µg/mL | 64 µg/mL | 16 µg/mL | 128 µg/mL | 32 µg/mL | 16 µg/mL
